Ends that are not written are not given here.
Key:
[1] = tested on: enteroinvasive E. coli 029; test: Radial diffusion assay against E. coli 029; format: cell-based; settings: for Action against E. coli compared to LL-37: synthetic peptides
Description: (§1) Antimicrobial assays. For screening of antimicrobial activity of HPLC fractions, radial diffusion assay was used. Lyophilized HPLC fractions were dissolved in DW (GibcoBRL, Grand Island, N.Y.), and tested against Staphylococcus aureus mprF. Thin plates (1 mm) of 1% agarose in 0.5% tryptone containing approximately […] of S. aureus mprF were used. 1 mm wells were punched in the plates and […] of samples dissolved in tissue culture grade sterile water were loaded in each well.
(§2) As a positive control, synthetic LL-37 was applied to separate wells. After incubation at 37° C. overnight, the inhibition zones were recorded by CCD camera and diameters measured. To evaluate antimicrobial activity against wild-type S. aureus (clinical isolate), and enteroinvasive E. coli 029, both radial diffusion and solution killing assays were done. Radial diffusion assays were done as described for S. aureus mprF. Solution killing was done in 10% TSB in 10 mM PB (TSB=30 gm/L Tryptic Soy Broth, Sigma, St Louis Mo.; 20×PB=27.6 g/L NaH2PO4-H2O, 53.65 g/L Na2HPO4-7H2O, pH 7.4). Bacteria in log-phase growth were suspended to 1×10^6 cells/ml, peptide added and incubated at 37° C. for 2 hr. Bacteria were then plated on TSB agar (TSB, Bactoagar 13 g/L, Becton Dickinson, Sparks Md.) for direct colony count and determination of CFU.

C. albicans ATCC 14053 = test: Liquid assay against C. albicans (minimum fungicide concentration); format: cell-based, Candida albicans; settings: for Fungicidal activity against Candida albicans compared to LL-37: synthetic peptides
Description: (§3) Activity against Group A Streptococcus (NZ131) was done only in solution assay as described. To evaluate antimicrobial activity in high salt conditions, solution assay was done in 10% TSB/10 mM PBS with several salt concentrations (concentration of NaCl; 10, 50, 100, 150, 300, 500 mM). Action against the C. albicans was determined in Dixon medium (0.6% Peptone, 4% Malt Extract, 1% Glucose, 0.1% Ox Bile, 1% Tween-80) in sterile 96-well microtiter plates (Corning Inc., Corning, N.Y.) at a final volume of […]. The assay mixtures contained 1-2.5×10^4 […] freshly grown Candida, 20% Dixon medium, 0.6 mM phosphate buffer pH 7, and […] chloramphenicol. Microtiter plates were incubated at 37° C. for 24 h with peptides, then plated on Dixon agar to determine the MFC (minimum fungicide concentration).

human erythrocytes = test: Hemolysis assay on human whole blood; format: cell-based
Description: Hemolysis Assay. Hemolytic activity was determined on human whole blood. Freshly obtained whole blood was washed 3× in PBS and resuspended in PBS at its original volume containing peptides at indicated concentrations. Samples were incubated at 37° C. for 1.5 to 3 h, and hemolysis determined by centrifuging at 300 g and measurement of the absorbance of the supernatant at 578 nm. Hemolytic activity of each peptide was expressed as the percentage of total hemoglobin released compared to that released by incubating with 0.1% Triton X-100.

[2] = tested on: Group A Streptococcus (NZ131); format: cell-based
Description: as §2, §3

[3] = tested on: Staphylococcus aureus mprF; test: Radial diffusion assay against S. aureus mprF; format: cell-based
Description: as §1, §2

[4] = tested on: wild-type S. aureus (clinical isolate); test: Radial diffusion assay against wild-type S. aureus; format: cell-based, Staphylococcus aureus; settings: for Action against wild-type S. aureus compared to LL-37: synthetic peptides
Description: as §1, §2

Staphylococcus aureus = test: S. aureus growth inhibition (turbidity OD600) with or without carbonate; format: cell-based; settings: for Effect of NaHCO3 on minimal inhibitory concentration (MIC) against Staph aureus: 20% TSB, 1 mM NaH2PO4, 50 mM NaHCO3, pH 7.4; for Susceptibility of S. aureus: 16 uM peptide
Description: Carbonate was identified as the antimicrobial enhancing factor in mammalian tissue culture media via serial deletion of Minimal Essential Media (MEM) components. Staphylococcus aureus was cultured in 20% Tryptic Soy Broth (TSB), 10% Fetal Bovine Serum (FBS) and 70% of various media or media components with, or without, 32 μM LL-37 to assess which components could increase antimicrobial activity. MEM buffers are 2200 mg/L NaHCO3, 140 mg/L NaH2PO4 and 6800 mg/L NaCl. MEM salts are 200 mg/L CaCl2, 400 mg/L KCl, 98 mg/L MgSO4. All solutions were adjusted to pH 7.4. Bacterial growth was measured as the change in turbidity at OD600 and percent inhibition was determined by comparing bacterial growth in the presence of peptide to that in the absence of peptide. […]
Inhibition of Staph aureus growth in the presence of various concentrations of human (LL-37), murine (CRAMP) and porcine (PR-39). Cathelicidin antimicrobial peptides was measured in 20% TSB, 1 mM NaH2PO4, with, or without, 50 mM NaHCO3 at pH 7.4. […]

E. coli = E. coli susceptibility to CRAMP with or without NaHCO3; format: cell-based; settings: 16 uM peptide
Salmonella = Salmonella susceptibility to CRAMP; format: cell-based; settings: 16 uM peptide; without NaHCO3
Group B Strep (GBS) = test: Group B Strep susceptibility to CRAMP; format: cell-based; settings: 16 uM peptide; without NaHCO3
antigen presentation = test: Antigen presentation in vitro; format: cell-based
S. aureus = test: Release of cytoplasmic beta-galactosidase (membrane disruption); format: cell-based; settings: with carbonate versus without
From the text: Release of cytoplasmic expressed beta-galactosidase was measure from bacteria with and without the addition of NaHCO3.

Substance	Radial Diffusion Assay minimal inhibitory concentration (MIC), E. coli (029) [1]	Liquid Assay minimal concentration required to kill C. albicans ATCC 14053 (C. albicans ATCC 14053)	Fungicidal activity against Candida albicans compared to LL-37 (C. albicans ATCC 14053)	% hemolysis (human erythrocytes)	Liquid Assay minimal concentration required to kill GAS (NZ131) [2]	Radial Diffusion Assay minimal inhibitory concentration (MIC), S. aurus MprF [3]	Radial Diffusion Assay minimal inhibitory concentration (MIC), S. aureus (wt) [4]	further results
KRIVQRIKDFLRNLVPRTES (listed as Homo sapiens) [KR-20, 20 amino acid cathelicidin derivative]	>64 μm	10 μm	increased fungicidal activity	0%	4 μm	16 μm	>64 μm	–
PR-39: porcine cathelicidin antimicrobial peptide (RRRPRPPYLPRPRPPPFFPPRLPPRIPPGFPPRFPPRFP; UniProt P80054 131-169, looked up)	–	–	–	–	–	–	–	Effect of NaHCO3 on minimal inhibitory concentration (MIC) against Staph aureus (Staphylococcus aureus): greatly reduced
CRAMP	–	–	–	–	–	–	–	Susceptibility of E. coli (E. coli; with 50 mM NaHCO3): susceptible; Susceptibility of E. coli (E. coli; without 50 mM NaHCO3): resistant; Susceptibility of Salmonella (Salmonella): susceptible; Susceptibility of Group B Strep (GBS) (Group B Strep (GBS)): susceptible; Susceptibility of S. aureus (Staphylococcus aureus; with 50 mM NaHCO3): susceptible; Susceptibility of S. aureus (Staphylococcus aureus; without 50 mM NaHCO3): resistant; Effect of NaHCO3 on minimal inhibitory concentration (MIC) against Staph aureus (Staphylococcus aureus): greatly reduced; Antigen presentation in vitro (antigen presentation): inhibits antigen presentation
RKSKEKIGKEFKRIVQRIKDFLRNLVPRTES (listed as Homo sapiens) [RK-31, cathelicidin peptide generated from LL-37]	8 μm	4 μm	increased fungicidal activity	6%	8 μm	8 μm	16 μm	Action against E. coli compared to LL-37 [1]: greatly increased action; Action against wild-type S. aureus compared to LL-37 [4]: greatly increased action
SSLLEKGLDGAKKAVGGLGKLGKDAVEDLESVGKGAVHDVKDVLDSV (listed as Homo sapiens) [DCD, dermcidin antimicrobial peptide of human sweat, reference compound]	>64 μm	>32 μm	–	–	>64 μm	>64 μm	>64 μm	–
KSKEKIGKEFKRIVQRIKDFLRNLVPRTES [KS-30]	8 μm	2 μm	increased fungicidal activity	.23%	4 μm	8 μm	16 μm	Action against E. coli compared to LL-37 [1]: greatly increased action; Action against wild-type S. aureus compared to LL-37 [4]: greatly increased action
Polymyxin B	–	–	–	–	–	–	–	Leakage of cytoplasmic protein (beta-galactosidase) from S. aureus (S. aureus): greater leakage
